In patent US6689756B2, “Treatment of neurological disease” (Integra LifeSciences Corporation, priority 2001, dated 2004):

Assay: oxygen carrying capacity of nutrient formulation
Type: physicochemical
Conditions: F44E formulations compared with the perfluorodecalin nutrient solution of Bell et al., Neurology 37:133, 1987
Excerpt: where m and n or independently at least 1 and m+n equals 6 to 10. Preferably, the double bond is trans. One preferred poly-fluorinated, oxygen-carrying compound is trans-Bis-perfluorobutyl ethylene (m and n each equal 4), which is also known as F44E. F44E formulations have a 25% greater oxygen carrying capacity than that of a prior nutrient solution made with perfluorodecalin, Bell et al., Neurology 37:133, 1987. Formulations comprising F44E are less viscous and relatively easier to perfuse.

FC(F)(F)C(F)(F)C(F)(F)C(F)(F)/C=C/C(F)(F)C(F)(F)C(F)(F)C(F)(F)F [F44E, trans-Bis-perfluorobutyl ethylene]
greater oxygen carrying capacity than that of a prior nutrient solution made with perfluorodecalin: 25%
